In brackets after ≈: the same amount, converted by molar mass.
How the values were obtained:
Staphylococcus warneri = test: Antibacterial activity against Staphylococcus warneri clinical isolate after 18 to 22 hrs by broth microdilution method; assay type: functional
Proteus mirabilis = test: Antibacterial activity against Proteus mirabilis clinical isolate after 18 to 22 hrs by broth microdilution method; assay type: functional
Escherichia coli = test: Antibacterial activity against Escherichia coli after clinical isolate 18 to 22 hrs by broth microdilution method; assay type: functional
Pichia kudriavzevii = test: Antifungal activity against Candida krusei clinical isolate after 24 hrs by broth microdilution method; assay type: functional
Candida tropicalis = test: Antifungal activity against Candida tropicalis clinical isolate after 24 hrs by broth microdilution method; assay type: functional
Candida parapsilosis = test: Antifungal activity against Candida parapsilosis clinical isolate after 24 hrs by broth microdilution method; assay type: functional; settings: Lodderomyces parapsilosis
Enterococcus faecalis = test: Antibacterial activity against Streptococcus faecalis clinical isolate after 18 to 22 hrs by broth microdilution method; assay type: functional
[1] = test system: Streptococcus sp. (viridans group); test: Antibacterial activity against Streptococcus alpha-hemolyticus clinical isolate after 18 to 22 hrs by broth microdilution method
Enterobacter sp. = test: Antibacterial activity against Enterobacter spp. clinical isolate after 18 to 22 hrs by broth microdilution method; assay type: functional
Staphylococcus aureus = test: Antibacterial activity against Staphylococcus aureus clinical isolate after 18 to 22 hrs by broth microdilution method; assay type: functional
Candida albicans = test: Antifungal activity against Candida albicans clinical isolate after 24 hrs by broth microdilution method; assay type: functional
Nakaseomyces glabratus = test: Antifungal activity against Candida glabrata clinical isolate after 24 hrs by broth microdilution method; assay type: functional
Klebsiella oxytoca = test: Antibacterial activity against Klebsiella oxytoca clinical isolate after 18 to 22 hrs by broth microdilution method; assay type: functional
[Candida] sake = Antifungal activity against Candida sake clinical isolate after 24 hrs by broth microdilution method; assay type: functional; settings: Fermentozyma sake

SMILES	MIC (Staphylococcus warneri) [µg/mL]	MIC (Proteus mirabilis) [µg/mL]	MIC (Escherichia coli) [µg/mL]	MIC (Pichia kudriavzevii) [µg/mL]	MIC (Candida tropicalis) [µg/mL]	MIC (Candida parapsilosis) [µg/mL]	MIC (Enterococcus faecalis) [µg/mL]	MIC [1] [µg/mL]	MIC (Enterobacter sp.) [µg/mL]	MIC (Staphylococcus aureus) [µg/mL]	MIC (Candida albicans) [µg/mL]	MIC (Nakaseomyces glabratus) [µg/mL]	MIC (Klebsiella oxytoca) [µg/mL]	MIC ([Candida] sake) [µg/mL]
CC(C)=N/N=C1\SCC(=O)N1Cc1ccccc1F	> 256	> 256	> 256	8 (≈ 28.6 µM)	4 (≈ 14.3 µM)	4 (≈ 14.3 µM)	> 256	> 256	> 256	> 256	8 (≈ 28.6 µM)	2 (≈ 7.16 µM)	> 256	8 (≈ 28.6 µM)
C/C(=N\N=C1/SCC(=O)N1Cc1ccccc1F)c1ccccn1	> 256	> 256	> 256	4 (≈ 11.7 µM)	4 (≈ 11.7 µM)	4 (≈ 11.7 µM)	> 256	> 256	> 256	> 256	4 (≈ 11.7 µM)	8 (≈ 23.4 µM)	> 256	8 (≈ 23.4 µM)
CC(C)=N/N=C1\SCC(=O)N1Cc1ccc(Cl)cc1	> 256	> 256	> 256	8 (≈ 27 µM)	8 (≈ 27 µM)	2 (≈ 6.76 µM)	> 256	> 256	> 256	> 256	4 (≈ 13.5 µM)	2 (≈ 6.76 µM)	> 256	4 (≈ 13.5 µM)
C/C(=N\N=C1/SCC(=O)N1Cc1cccc(F)c1)c1ccccn1	> 256	> 256	> 256	8 (≈ 23.4 µM)	8 (≈ 23.4 µM)	2 (≈ 5.84 µM)	> 256	> 256	> 256	> 256	2 (≈ 5.84 µM)	2 (≈ 5.84 µM)	> 256	4 (≈ 11.7 µM)
C/C(=N\N=C1/SCC(=O)N1Cc1ccccc1Cl)c1cccs1	> 256	> 256	> 256	8 (≈ 22 µM)	2 (≈ 5.5 µM)	8 (≈ 22 µM)	> 256	> 256	> 256	> 256	4 (≈ 11 µM)	4 (≈ 11 µM)	> 256	8 (≈ 22 µM)
CC(C)=N/N=C1\SCC(=O)N1Cc1ccccc1Cl	> 256	> 256	> 256	8 (≈ 27 µM)	16 (≈ 54.1 µM)	8 (≈ 27 µM)	> 256	> 256	> 256	> 256	2 (≈ 6.76 µM)	2 (≈ 6.76 µM)	> 256	2 (≈ 6.76 µM)
CC(C)=N/N=C1\SCC(=O)N1Cc1cccc(F)c1	> 256	> 256	> 256	4 (≈ 14.3 µM)	4 (≈ 14.3 µM)	2 (≈ 7.16 µM)	> 256	> 256	> 256	> 256	4 (≈ 14.3 µM)	4 (≈ 14.3 µM)	> 256	8 (≈ 28.6 µM)
O=C1CS/C(=N\N=C2CCCC2)N1Cc1cccc(F)c1	> 256	> 256	> 256	2 (≈ 6.55 µM)	16 (≈ 52.4 µM)	4 (≈ 13.1 µM)	> 256	> 256	> 256	> 256	4 (≈ 13.1 µM)	2 (≈ 6.55 µM)	> 256	8 (≈ 26.2 µM)
CC(C)=N/N=C1\SCC(=O)N1Cc1ccc(F)cc1	> 256	> 256	> 256	16 (≈ 57.3 µM)	16 (≈ 57.3 µM)	2 (≈ 7.16 µM)	> 256	> 256	> 256	> 256	8 (≈ 28.6 µM)	4 (≈ 14.3 µM)	> 256	8 (≈ 28.6 µM)
O=C1CS/C(=N\N=C2CCCC2)N1Cc1cccc([N+](=O)[O-])c1	> 256	> 256	> 256	8 (≈ 24.1 µM)	4 (≈ 12 µM)	4 (≈ 12 µM)	> 256	> 256	> 256	> 256	4 (≈ 12 µM)	16 (≈ 48.1 µM)	> 256	2 (≈ 6.02 µM)
C/C(=N\N=C1/SCC(=O)N1Cc1cccc([N+](=O)[O-])c1)c1ccccn1	> 256	> 256	> 256	8 (≈ 21.7 µM)	8 (≈ 21.7 µM)	8 (≈ 21.7 µM)	> 256	> 256	> 256	> 256	4 (≈ 10.8 µM)	2 (≈ 5.41 µM)	> 256	4 (≈ 10.8 µM)
O=C1CS/C(=N\N=C2CCCC2)N1Cc1ccc(F)cc1	> 256	> 256	> 256	8 (≈ 26.2 µM)	16 (≈ 52.4 µM)	2 (≈ 6.55 µM)	> 256	> 256	> 256	> 256	8 (≈ 26.2 µM)	4 (≈ 13.1 µM)	> 256	8 (≈ 26.2 µM)
